Common to all, as to assay: NCI tumour cell line growth inhibition, 48 h
Experiment [1] has as its system NCI/ADR-RES ovarian.
Experiment [2] has as its system A498 renal.
Experiment [3] has as its system UACC-62 melanoma.
For experiment [4], the system named is HOP-62 NSCLC.
The subject of experiment [5] is HL-60(TB) leukemia.
In experiment [6] the test system is SF-268 CNS.
For experiment [7], the system named is CAKI-1 renal.
The test system of experiment [8] is T-47D breast.
In experiment [9] the test system is SK-MEL-28 melanoma.
In experiment [10] the test system is MDA-MB-231 breast.

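Assay format: 96-well plates, 48-hour exposure. The concentration for 50% growth inhibition is given as GI50. The concentration for full growth arrest is given as TGI.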 Some results are limits rather than exact numbers.

As for `CN(C)CCn1c(=O)c2ccc(NCCN3CCNCC3)c3c(=O)c4ccccc4n(c1=O)c23`, the TGI in [1] is 30 µM; in experiment [2], 16.1 µM; in [3], 15.8 µM; in experiment [4], 22.8 µM; in [5], 18.4 µM; in [6], 18.7 µM. Also, the TGI in [7] came out at 10.2 µM; in [8], 28.9 µM; in experiment [9], 25.5 µM; in experiment [10], 11.8 µM.

Take `CC(=O)O[C@H]1CC[C@@]2(C)C(=CC[C@@H]3[C@@H]2CC[C@]2(C)c4c(C)nn(-c5ccccc5)c4C[C@@H]32)C1`: the TGI in [1] is over 100 µM; in experiment [2], 52.8 µM; in experiment [3], 39.3 µM; in experiment [4] it was 35.2 µM; in experiment [5], 77 µM; in [6], over 100 µM. Moreover, the TGI in [7] was 47.2 µM; in [8], over 100 µM; in experiment [9], over 100 µM; in experiment [10], 50.6 µM.

On to `CCOC(=O)C1=NN(c2ccc([N+](=O)[O-])cc2)[C@@]2(C)C[C@]3(c4ccccc4)N(c4ccc([N+](=O)[O-])cc4)N=C(C(=O)OCC)N3c3ccccc3N12`, for which the TGI in experiment [1], in [2], in experiment [3], in experiment [4], in experiment [5] and in experiment [6] was over 100 µM each time. The TGI is over 100 µM in experiment [7], over 100 µM in [8], over 100 µM in [9] and 84.4 µM in [10].

For `CC1(C)Cc2nc3c(cc2C(=O)C1C=N/C(C#N)=C(\N)C#N)C(=O)C(C=N/C(C#N)=C(\N)C#N)C(C)(C)C3` (stereo not given), the TGI was over 42 µM in [1]; 15.4 µM in experiment [2]; 3.56 µM in experiment [3]; 6.94 µM in experiment [4]; 10.1 µM in [5]; 3.39 µM in experiment [6]. Also, the TGI in experiment [7] was found to be 3.54 µM; in experiment [8], 4.3 µM; in [9], 4.58 µM; in experiment [10], 22.1 µM.

As for `NC(=O)Cc1nc2c(N)ncnc2n1C1OC(CO)C(O)C1O` (stereo not given), the TGI in [1], in experiment [2], in experiment [3], in [4], in [5] and in [6] was over 100 µM each time. Also, the TGI in [7], in experiment [8], in experiment [9] and in [10] was over 100 µM throughout.

Turning to `O=c1[nH]nc(Cc2c[nH]c3ccccc23)o1`, the TGI in [1], in experiment [2], in experiment [3], in [4], in experiment [5] and in [6] was over 100 µM throughout. The TGI in [7], in experiment [8], in [9] and in experiment [10] was over 100 µM each time.

Turning to `C=CCN(C(=O)OC(C)(C)C)[C@H](C)C(=O)N[C@@H](C)C(=O)OC`, the TGI in experiment [1], in experiment [2], in experiment [3], in experiment [4], in experiment [5] and in experiment [6] was over 100 µM in each case. Moreover, the TGI in experiment [7], in experiment [8], in [9] and in experiment [10] was over 100 µM each time.

For `COc1cc(/C=N/n2c(-c3ccccc3)nn(C(C)=O)c2=O)cc(OC)c1OC`, the TGI in [1] is over 42.6 µM; in experiment [2], 23.3 µM; in experiment [3] it was 31.4 µM; in experiment [4], over 100 µM; in [5] it was 9.68 µM; in experiment [6] it was over 100 µM. In addition, the TGI in experiment [7] was over 100 µM; in experiment [8], over 100 µM; in experiment [9], over 80.6 µM; in experiment [10], 64.3 µM.

For the compound `COc1cc(-c2cc(=O)c3c(O)c(CC=C(C)C)c(O)cc3o2)ccc1O`, the TGI in experiment [1], in experiment [2], in experiment [3], in experiment [4], in experiment [5] and in experiment [6] was over 50 µM each time. Further, the TGI in experiment [7] was 28 µM; in experiment [8], 40.8 µM; in experiment [9], 26.7 µM; in [10], over 50 µM.

`O=C(O)CCSCc1ccccc1`: the TGI in [1], in experiment [2], in experiment [3], in [4], in [5] and in experiment [6] was over 100 µM throughout. Moreover, the TGI in [7], in [8], in [9] and in [10] was over 100 µM each time.

With `O=C(Nc1ccc(-n2ccc3c(NC(=O)c4ccccc4)ncnc32)cc1)Nc1ccc(Cl)c(Cl)c1`, the GI50 in experiment [1] was 10.3 µM; in [2], 7.05 µM; in [3], 6.34 µM; in [4] it was 1.85 µM; in [5] it was 8.18 µM; in experiment [6], 4.22 µM. The GI50 is 8.79 µM in experiment [7], 3.32 µM in experiment [8], 2.92 µM in [9] and 4.11 µM in experiment [10]. Besides, the TGI turned out to be 50 µM in experiment [1]; 14.7 µM in experiment [2]; 13.1 µM in [3]; 7.44 µM in [4]; 30.6 µM in experiment [5]; 12.9 µM in experiment [6]. Moreover, the TGI in experiment [7] turned out to be 21.2 µM; in experiment [8], 11.7 µM; in experiment [9], 9.43 µM; in experiment [10] it was 11 µM.

In the case of `COc1ccc(/C=C2\CCS(=O)(=O)c3ccccc3C2=O)cc1`, the TGI in [1] is 50 µM; in [2] it was 37.1 µM; in experiment [3], 42.4 µM; in experiment [4], over 100 µM; in experiment [5], 66.4 µM; in experiment [6], 98.2 µM. For the same compound, the TGI is 67.5 µM in [7], 74.3 µM in experiment [8], 72 µM in experiment [9] and 75.3 µM in experiment [10].

Regarding `Cc1cccc2c1c(=O)c1c(O)c3c(cc1n2C)OC(C)(C)C=C3`, the TGI in experiment [1], in experiment [2], in experiment [3], in experiment [4], in experiment [5] and in experiment [6] was over 10 µM in each case. Moreover, the TGI in [7], in [8], in [9] and in [10] was over 10 µM throughout.

Consider `CCOC(=O)C1(C(=O)OCC)OC(C)=NC1(C(=O)OC)C(=O)OC`, for which the TGI in experiment [1], in experiment [2], in [3], in experiment [4], in experiment [5] and in experiment [6] was over 100 µM throughout. Besides, the TGI in [7], in experiment [8], in experiment [9] and in experiment [10] was over 100 µM in each case.

Source of the values: PubChem BioAssay (NCI).
